Experimental findings from ChEMBL document CHEMBL1129033, “Synthesis and antibacterial activity of U-100592 and U-100766, two oxazolidinone antibacterial agents for the potential treatment of multidrug-resistant gram-positive bacterial infections” (1996) are described below.

SMILES strings stand for the structures. ≈ marks a conversion by molar mass, not a printed value.

For assay [1], the system named is Mus musculus. The assay is described as follows: (§1) In vivo antibacterial activity against Staphylococcus aures strain UC 9213 administered subcutaneously in mice. The assay is classed as functional. Particulars: sc.
Assay [2] has as its system Mus musculus. The assay is described as follows: In vivo antibacterial activity against Enterococcus faecium strain UC 15090 administered perorally in mice. The assay is classed as functional. The conditions noted are these: po.
The subject of a further assay is Escherichia coli. The assay is described as follows: In vitro antibacterial activity against Escherichia coli strain ATCC 25922. The assay is classed as functional.
Assay [3] concerns Staphylococcus aureus. In words: In vitro antibacterial activity against Staphylococcus aures strain ATCC 29213. The assay is classed as functional.
Assay [4] has as its system Mycobacterium tuberculosis. In words: In vitro antibacterial activity against Mycobacterium tuberculosis strain H37Rv. The assay is classed as functional.
The next assay deals with Streptococcus pneumoniae. In words: In vitro antibacterial activity against Streptococcus pneumoniae strain UC 9912. The assay is classed as functional.
Another assay deals with Streptococcus pyogenes. In words: In vitro antibacterial activity against Streptococcus pyogenes strain UC 152. The assay is classed as functional.
Another assay relates to Pseudomonas aeruginosa. In words: In vitro antibacterial activity against Pseudomonas aeruginosa strain ATCC 27853. The assay is classed as functional.
The subject of assay [5] is Staphylococcus aureus. In words: In vitro antibacterial activity against Staphylococcus aures strain UC12673. The assay is classed as functional.
The subject of assay [6] is Mus musculus. The assay is described as follows: In vivo antibacterial activity against Staphylococcus aures strain UC 9213 administered perorally in mice. The assay is classed as functional. The conditions noted are these: po.
Another assay relates to Clostridium perfringens. The assay is described as follows: In vitro antibacterial activity against Clostridium perfringens strain ATCC 13124. The assay is classed as functional.
A further assay deals with Enterococcus faecium. The assay is described as follows: In vitro antibacterial activity against Enterococcus faecium strain UC12712. The assay is classed as functional.
For assay [7], the system named is Mus musculus. In words: In vivo antibacterial activity against Enterococcus faecalis strain UC 12379 administered perorally in mice. The assay is classed as functional. Particulars: po.
In another assay the test system is Enterococcus faecalis. In words: In vitro antibacterial activity against Enterococcus faecalis strain ATCC 29212. The assay is classed as functional.
The subject of another assay is Bacteroides fragilis. In words: In vitro antibacterial activity against Bacteroides fragilis strain ATCC 25285. The assay is classed as functional.
A further assay concerns Klebsiella pneumoniae. The assay is described as follows: In vitro antibacterial activity against Klebsiella pneumoniae strain UC 12081. The assay is classed as functional.
Assay [8] has as its system Staphylococcus aureus. In words: In vitro antibacterial activity against Staphylococcus aures strain UC 9213. The assay is classed as functional.
The test system of assay [9] is Staphylococcus epidermidis. In words: In vitro antibacterial activity against Staphylococcus epidermis strain UC 30031. The assay is classed as functional.
The test system of assay [10] is Mus musculus. In words: In vivo antibacterial activity against Enterococcus faecalis strain UC 12379 administered subcutaneously in mice. The assay is classed as functional. The conditions noted are these: sc.
Assay [11] concerns Mus musculus. The assay is described as follows: In vivo antibacterial activity against Enterococcus faecium strain UC 15090 administered subcutaneously in mice. The assay is classed as functional. Particulars: sc.
Assay [12] concerns Mycobacterium tuberculosis. In words: In vitro antibacterial activity against Mycobacterium tuberculosis strain H37Rv; f means comparative control value for isoniazid was 0.20 ug/mL. The assay is classed as functional, organism-based.
The test system of assay [13] is Mus musculus. The description is as §1. The assay is classed as functional. The conditions noted are these: sc. The source holds these as a separate data set.

In general, ED50 refers to the dose that gives a 50% effect, or the effect in half of the subjects. One may read the MIC as the smallest concentration in the dilution series that meets the test's criterion for growth inhibition. Higher therefore signals a need for much substance. Consider `CC(=O)NC[C@H]1CN(c2ccc(N3CCN(C(=O)CO)CC3)c(F)c2)C(=O)O1` [EPEREZOLID], for which the ED50 with Mus musculus [1] stood at 0.9 mg/kg; in the assay with Mus musculus [2], 12.5 mg/kg; in the assay with Mus musculus [6], 1.9 mg/kg; in the assay on Mus musculus [7], 1.3 mg/kg. The MIC with Escherichia coli is above 64 µg/mL; in the assay on Staphylococcus aureus [3], 4 µg/mL (≈ 10.1 µM); in [4] it was below 0.125 µg/mL; in the assay with Streptococcus pneumoniae it was 0.5 µg/mL (≈ 1.27 µM); against Streptococcus pyogenes, 1 µg/mL (≈ 2.54 µM); with Pseudomonas aeruginosa, above 64 µg/mL. For the same compound, the MIC was 2 µg/mL (≈ 5.07 µM) in the assay with Staphylococcus aureus [5]; 1 µg/mL (≈ 2.54 µM) with Clostridium perfringens; 1 µg/mL (≈ 2.54 µM) against Enterococcus faecium; 2 µg/mL (≈ 5.07 µM) with Enterococcus faecalis; 1 µg/mL (≈ 2.54 µM) in the assay with Bacteroides fragilis; above 64 µg/mL in the assay on Klebsiella pneumoniae. Also, the results for the MIC (in the assay on Staphylococcus aureus [8]; in [9]) were 4 µg/mL (≈ 10.1 µM) and 1 µg/mL (≈ 2.54 µM), respectively.
Regarding `CC(=O)NC[C@H]1CN(c2ccc(N3CCOCC3)c(F)c2)C(=O)O1` [LINEZOLID], the ED50 in the assay with Mus musculus [1] was 2 mg/kg; in the assay with Mus musculus [2] it was 24 mg/kg; in the assay with Mus musculus [6], 5.6 mg/kg; with Mus musculus [7], 10 mg/kg. In addition, the MIC was above 64 µg/mL in the assay on Escherichia coli; below 0.125 µg/mL in [4]; 2 µg/mL (≈ 5.93 µM) in the assay with Streptococcus pyogenes; above 64 µg/mL in the assay on Pseudomonas aeruginosa; 1 µg/mL (≈ 2.96 µM) in the assay on Clostridium perfringens; 2 µg/mL (≈ 5.93 µM) in the assay with Enterococcus faecium. Besides, the MIC was 1 µg/mL (≈ 2.96 µM) in the assay with Bacteroides fragilis, above 64 µg/mL in the assay with Klebsiella pneumoniae and 1 µg/mL (≈ 2.96 µM) in assay [9].
`CN[C@H](CC(C)C)C(=O)N[C@H]1C(=O)N[C@@H](CC(N)=O)C(=O)N[C@H]2C(=O)N[C@H]3C(=O)N[C@H](C(=O)N[C@H](C(=O)O)c4cc(O)cc(O)c4-c4cc3ccc4O)[C@H](O)c3ccc(c(Cl)c3)Oc3cc2cc(c3O[C@@H]2O[C@H](CO)[C@@H](O)[C@H](O)[C@H]2O[C@H]2C[C@](C)(N)[C@H](O)[C@H](C)O2)Oc2ccc(cc2Cl)[C@H]1O` [VANCOMYCIN]: the ED50 was below 0.6 mg/kg in the assay on Mus musculus [10], 3.9 mg/kg in the assay on Mus musculus [1], above 100 mg/kg with Mus musculus [11] and 3.9 mg/kg in the assay with Mus musculus [13]. For the same compound, the MIC is above 64 µg/mL in the assay on Escherichia coli; 0.5 µg/mL (≈ 0.345 µM) against Streptococcus pneumoniae; above 64 µg/mL with Pseudomonas aeruginosa; 1 µg/mL (≈ 0.69 µM) against Clostridium perfringens; “Comparitive control valie for isonazid was 0.20 ug/ml” in [12]; above 16 µg/mL against Bacteroides fragilis. In the assay on Klebsiella pneumoniae, this compound yielded an MIC above 64 µg/mL.
